Reference: article PMC4685510, “A Cell Biologist’s Field Guide to Aurora Kinase Inhibitors” (Frontiers in Oncology, 2015)
Like-named read-outs stand apart in the source and are kept apart here.

Tests used:
Assay in all cases: biochemical
Type in all cases: biochemical
[1] = molecular target: 363 human kinases (including Aurora A/B/C) (Homo sapiens, UniProt Q9UQM7); details: CAMK2a, [ATP] 100 µM, read-out: % Enzyme Activity (relative to DMSO controls)
Excerpt: (§1) However, the Aurora A/B selectivity ratios derived from our in vitro and in vivo data can be compared to prioritize inhibitors.

[2] = molecular target: 363 human kinases (including Aurora A/B/C) (Homo sapiens, UniProt O00238); details: ALK6/BMPR1B, [ATP] 10 µM, read-out: % Enzyme Activity (relative to DMSO controls)
Excerpt: as §1

[3] = molecular target: 363 human kinases (including Aurora A/B/C) (Homo sapiens, UniProt P29376); details: TYK1/LTK, read-out: % Enzyme Activity (relative to DMSO controls)
Chain of 363 human kinases (including Aurora A/B/C) (Homo sapiens, UniProt P29376) (P29376 17-864): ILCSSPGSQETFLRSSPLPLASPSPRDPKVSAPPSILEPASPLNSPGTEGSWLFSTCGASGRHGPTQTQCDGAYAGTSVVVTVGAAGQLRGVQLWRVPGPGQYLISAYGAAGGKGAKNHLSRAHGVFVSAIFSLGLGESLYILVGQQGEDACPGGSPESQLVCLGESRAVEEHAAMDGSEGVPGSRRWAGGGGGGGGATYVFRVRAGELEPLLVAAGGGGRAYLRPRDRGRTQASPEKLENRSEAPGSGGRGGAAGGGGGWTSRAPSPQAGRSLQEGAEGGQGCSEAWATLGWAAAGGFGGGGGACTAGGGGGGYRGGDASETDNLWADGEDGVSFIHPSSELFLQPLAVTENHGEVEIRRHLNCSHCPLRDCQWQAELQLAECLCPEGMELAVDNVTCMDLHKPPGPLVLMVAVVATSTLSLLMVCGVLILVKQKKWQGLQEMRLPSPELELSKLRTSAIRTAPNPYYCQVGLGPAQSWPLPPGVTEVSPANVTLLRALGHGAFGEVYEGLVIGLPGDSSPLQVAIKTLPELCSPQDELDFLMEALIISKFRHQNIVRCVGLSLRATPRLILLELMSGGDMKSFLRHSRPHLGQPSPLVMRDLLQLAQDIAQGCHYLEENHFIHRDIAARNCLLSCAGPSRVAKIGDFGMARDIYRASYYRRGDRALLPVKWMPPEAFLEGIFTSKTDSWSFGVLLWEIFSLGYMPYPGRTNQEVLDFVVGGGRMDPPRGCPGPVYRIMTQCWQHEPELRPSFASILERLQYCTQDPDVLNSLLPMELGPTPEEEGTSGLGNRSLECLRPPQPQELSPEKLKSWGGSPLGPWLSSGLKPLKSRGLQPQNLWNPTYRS
Excerpt: as §1

[4] = molecular target: 363 human kinases (including Aurora A/B/C) (Homo sapiens, UniProt P22612); details: PKAcg, read-out: % Enzyme Activity (relative to DMSO controls)
Chain of 363 human kinases (including Aurora A/B/C) (Homo sapiens, UniProt P22612) (P22612 whole entry): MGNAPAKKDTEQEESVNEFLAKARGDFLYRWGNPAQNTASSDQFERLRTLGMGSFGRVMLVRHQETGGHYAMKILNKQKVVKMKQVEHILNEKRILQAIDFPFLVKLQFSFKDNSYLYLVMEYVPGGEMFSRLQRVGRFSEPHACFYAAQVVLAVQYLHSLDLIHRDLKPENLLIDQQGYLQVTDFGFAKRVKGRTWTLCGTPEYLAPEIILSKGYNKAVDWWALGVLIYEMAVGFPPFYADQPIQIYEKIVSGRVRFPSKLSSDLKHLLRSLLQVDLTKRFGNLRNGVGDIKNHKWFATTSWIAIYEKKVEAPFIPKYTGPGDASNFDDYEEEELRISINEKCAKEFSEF
Excerpt: as §1

[5] = molecular target: 363 human kinases (including Aurora A/B/C) (Homo sapiens, UniProt P09619); details: PDGFRb, read-out: % Enzyme Activity (relative to DMSO controls)
Chain of 363 human kinases (including Aurora A/B/C) (Homo sapiens, UniProt P09619) (P09619 33-1106): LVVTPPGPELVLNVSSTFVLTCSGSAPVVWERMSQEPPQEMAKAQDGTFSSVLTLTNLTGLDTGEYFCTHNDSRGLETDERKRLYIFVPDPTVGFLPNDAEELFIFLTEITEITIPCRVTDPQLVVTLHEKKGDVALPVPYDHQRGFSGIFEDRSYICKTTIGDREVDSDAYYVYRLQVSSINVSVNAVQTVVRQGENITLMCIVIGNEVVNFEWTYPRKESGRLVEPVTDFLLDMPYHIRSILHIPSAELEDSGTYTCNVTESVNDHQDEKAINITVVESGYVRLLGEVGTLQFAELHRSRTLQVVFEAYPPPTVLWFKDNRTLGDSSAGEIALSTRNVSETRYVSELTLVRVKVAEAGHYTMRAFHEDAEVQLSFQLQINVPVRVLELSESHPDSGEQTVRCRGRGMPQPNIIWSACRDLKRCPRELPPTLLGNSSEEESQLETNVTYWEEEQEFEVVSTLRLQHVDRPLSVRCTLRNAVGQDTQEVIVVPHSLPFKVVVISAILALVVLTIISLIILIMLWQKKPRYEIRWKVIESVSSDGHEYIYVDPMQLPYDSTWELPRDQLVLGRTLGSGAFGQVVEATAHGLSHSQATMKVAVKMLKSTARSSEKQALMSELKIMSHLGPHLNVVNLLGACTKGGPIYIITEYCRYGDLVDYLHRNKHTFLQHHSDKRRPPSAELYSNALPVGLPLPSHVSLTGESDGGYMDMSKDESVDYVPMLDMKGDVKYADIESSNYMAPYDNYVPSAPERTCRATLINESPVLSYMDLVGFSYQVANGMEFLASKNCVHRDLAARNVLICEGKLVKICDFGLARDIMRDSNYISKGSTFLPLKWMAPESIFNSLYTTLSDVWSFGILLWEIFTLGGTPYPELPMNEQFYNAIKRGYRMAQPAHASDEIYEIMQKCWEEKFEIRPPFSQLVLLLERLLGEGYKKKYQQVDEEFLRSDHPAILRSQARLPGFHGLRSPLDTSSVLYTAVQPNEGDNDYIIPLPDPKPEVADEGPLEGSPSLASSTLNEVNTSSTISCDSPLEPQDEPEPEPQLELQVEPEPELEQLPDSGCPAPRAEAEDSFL
Excerpt: as §1

[6] = molecular target: T1, 363 human kinases (including Aurora A/B/C) (Homo sapiens, UniProt Q8NE63); details: HIPK4, read-out: % Enzyme Activity (relative to DMSO controls)
T1 sequence (Q8NE63 1-616): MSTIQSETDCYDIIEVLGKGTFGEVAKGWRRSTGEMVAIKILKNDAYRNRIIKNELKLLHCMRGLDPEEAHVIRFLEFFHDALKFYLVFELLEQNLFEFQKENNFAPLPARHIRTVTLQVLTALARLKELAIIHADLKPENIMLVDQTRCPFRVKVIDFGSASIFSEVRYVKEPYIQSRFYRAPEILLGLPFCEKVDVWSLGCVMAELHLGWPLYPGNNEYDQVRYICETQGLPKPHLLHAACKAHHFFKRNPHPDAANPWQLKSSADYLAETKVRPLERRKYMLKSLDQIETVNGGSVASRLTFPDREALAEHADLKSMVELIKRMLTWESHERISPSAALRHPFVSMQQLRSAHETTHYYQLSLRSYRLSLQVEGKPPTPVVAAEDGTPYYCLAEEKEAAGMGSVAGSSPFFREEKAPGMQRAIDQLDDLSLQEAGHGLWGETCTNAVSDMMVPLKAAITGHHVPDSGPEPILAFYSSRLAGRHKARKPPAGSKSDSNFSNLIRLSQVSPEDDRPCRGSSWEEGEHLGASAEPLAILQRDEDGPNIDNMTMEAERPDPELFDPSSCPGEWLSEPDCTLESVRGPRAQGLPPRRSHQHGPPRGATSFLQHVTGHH
Excerpt: as §1

[7] = molecular target: 363 human kinases (including Aurora A/B/C) (Homo sapiens, UniProt O96013); details: PAK4, read-out: % Enzyme Activity (relative to DMSO controls)
Excerpt: as §1

[8] = molecular target: 363 human kinases (including Aurora A/B/C) (Homo sapiens, UniProt P11802); details: read-out: % Enzyme Activity (relative to DMSO controls); for remaining activity at 0.1 µM: 100 nM; for remaining activity at 0.5 µM: 500 nM
Chain of 363 human kinases (including Aurora A/B/C) (Homo sapiens, UniProt P11802) (P11802 whole entry): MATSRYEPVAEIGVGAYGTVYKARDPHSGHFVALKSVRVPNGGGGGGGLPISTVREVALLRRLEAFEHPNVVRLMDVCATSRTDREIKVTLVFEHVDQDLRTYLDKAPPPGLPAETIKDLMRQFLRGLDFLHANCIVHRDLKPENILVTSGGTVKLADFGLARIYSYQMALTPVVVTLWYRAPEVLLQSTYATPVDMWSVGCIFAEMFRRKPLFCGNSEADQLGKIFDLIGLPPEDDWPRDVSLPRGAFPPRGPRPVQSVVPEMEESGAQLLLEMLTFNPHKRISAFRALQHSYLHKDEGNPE
Excerpt: as §1

[9] = molecular target: 363 human kinases (including Aurora A/B/C) (Homo sapiens, UniProt Q13164); details: ERK5/MAPK7, [ATP] 5 µM, read-out: % Enzyme Activity (relative to DMSO controls)
Excerpt: as §1

[10] = molecular target: 363 human kinases (including Aurora A/B/C) (Homo sapiens, UniProt P35968); details: KDR/VEGFR2, read-out: % Enzyme Activity (relative to DMSO controls)
Chain of 363 human kinases (including Aurora A/B/C) (Homo sapiens, UniProt P35968) (P35968 20-1356): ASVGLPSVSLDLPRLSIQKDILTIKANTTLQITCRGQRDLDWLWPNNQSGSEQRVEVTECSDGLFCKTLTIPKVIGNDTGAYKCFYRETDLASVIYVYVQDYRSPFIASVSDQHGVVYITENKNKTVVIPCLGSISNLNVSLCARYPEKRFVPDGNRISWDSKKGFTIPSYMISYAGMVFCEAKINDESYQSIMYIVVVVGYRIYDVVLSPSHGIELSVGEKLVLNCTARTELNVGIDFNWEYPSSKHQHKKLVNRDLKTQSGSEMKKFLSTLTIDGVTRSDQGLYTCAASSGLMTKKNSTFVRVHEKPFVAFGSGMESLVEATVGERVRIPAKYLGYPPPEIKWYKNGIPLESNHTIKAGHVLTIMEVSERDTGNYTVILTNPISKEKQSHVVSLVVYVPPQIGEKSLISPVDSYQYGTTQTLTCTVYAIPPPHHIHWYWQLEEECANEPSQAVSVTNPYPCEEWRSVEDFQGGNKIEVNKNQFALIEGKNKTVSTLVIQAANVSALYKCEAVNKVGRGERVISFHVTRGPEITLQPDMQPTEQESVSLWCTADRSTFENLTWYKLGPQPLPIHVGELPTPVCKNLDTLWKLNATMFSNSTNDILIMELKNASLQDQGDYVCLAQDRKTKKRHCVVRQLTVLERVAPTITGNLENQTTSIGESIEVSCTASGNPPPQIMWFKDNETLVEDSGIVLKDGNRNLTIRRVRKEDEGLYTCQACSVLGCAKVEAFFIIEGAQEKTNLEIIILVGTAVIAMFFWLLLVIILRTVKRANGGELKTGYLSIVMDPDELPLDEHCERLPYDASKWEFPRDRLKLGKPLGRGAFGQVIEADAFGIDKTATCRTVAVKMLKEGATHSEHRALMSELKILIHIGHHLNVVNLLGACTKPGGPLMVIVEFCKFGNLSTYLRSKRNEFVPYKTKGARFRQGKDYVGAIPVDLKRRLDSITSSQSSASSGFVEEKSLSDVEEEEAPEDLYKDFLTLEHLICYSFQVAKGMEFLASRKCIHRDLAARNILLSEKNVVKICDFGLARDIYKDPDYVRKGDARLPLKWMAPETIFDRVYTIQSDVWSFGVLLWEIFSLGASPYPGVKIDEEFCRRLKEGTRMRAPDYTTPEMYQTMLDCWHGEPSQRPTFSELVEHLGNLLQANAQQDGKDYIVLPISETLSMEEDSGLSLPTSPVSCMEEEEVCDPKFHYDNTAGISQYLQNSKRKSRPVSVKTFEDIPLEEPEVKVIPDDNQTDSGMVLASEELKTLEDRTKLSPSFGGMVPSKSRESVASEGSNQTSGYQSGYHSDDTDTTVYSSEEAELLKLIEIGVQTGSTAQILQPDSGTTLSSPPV
Excerpt: as §1

[11] = molecular target: T2, 363 human kinases (including Aurora A/B/C) (Homo sapiens, UniProt Q32MK0); details: MYLK3, read-out: % Enzyme Activity (relative to DMSO controls)
T2 sequence (Q32MK0 1-819): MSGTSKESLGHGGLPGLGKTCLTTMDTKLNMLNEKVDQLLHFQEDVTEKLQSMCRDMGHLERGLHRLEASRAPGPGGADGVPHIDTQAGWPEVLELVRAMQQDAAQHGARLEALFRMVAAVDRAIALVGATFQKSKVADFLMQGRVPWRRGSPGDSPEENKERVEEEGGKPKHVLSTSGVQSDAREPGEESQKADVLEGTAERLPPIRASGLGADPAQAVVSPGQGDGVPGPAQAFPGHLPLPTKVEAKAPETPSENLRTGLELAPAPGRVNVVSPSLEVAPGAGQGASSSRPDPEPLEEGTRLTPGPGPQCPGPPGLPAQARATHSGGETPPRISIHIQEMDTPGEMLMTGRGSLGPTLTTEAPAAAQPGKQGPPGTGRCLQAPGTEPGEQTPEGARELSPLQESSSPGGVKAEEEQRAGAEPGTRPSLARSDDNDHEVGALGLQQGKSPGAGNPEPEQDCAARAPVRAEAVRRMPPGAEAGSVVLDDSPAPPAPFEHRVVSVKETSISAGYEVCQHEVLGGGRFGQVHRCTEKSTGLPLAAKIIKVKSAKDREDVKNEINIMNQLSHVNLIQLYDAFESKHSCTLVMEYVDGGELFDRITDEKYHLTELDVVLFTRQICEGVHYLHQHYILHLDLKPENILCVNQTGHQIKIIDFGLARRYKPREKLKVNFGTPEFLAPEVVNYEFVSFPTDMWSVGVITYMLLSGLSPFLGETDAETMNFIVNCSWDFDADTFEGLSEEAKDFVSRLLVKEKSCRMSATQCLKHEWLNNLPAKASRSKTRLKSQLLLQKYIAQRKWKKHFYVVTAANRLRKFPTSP
Excerpt: as §1

[12] = molecular target: 363 human kinases (including Aurora A/B/C) (Homo sapiens, UniProt Q9P286); details: PAK5, read-out: % Enzyme Activity (relative to DMSO controls)
Chain of 363 human kinases (including Aurora A/B/C) (Homo sapiens, UniProt Q9P286) (Q9P286 whole entry): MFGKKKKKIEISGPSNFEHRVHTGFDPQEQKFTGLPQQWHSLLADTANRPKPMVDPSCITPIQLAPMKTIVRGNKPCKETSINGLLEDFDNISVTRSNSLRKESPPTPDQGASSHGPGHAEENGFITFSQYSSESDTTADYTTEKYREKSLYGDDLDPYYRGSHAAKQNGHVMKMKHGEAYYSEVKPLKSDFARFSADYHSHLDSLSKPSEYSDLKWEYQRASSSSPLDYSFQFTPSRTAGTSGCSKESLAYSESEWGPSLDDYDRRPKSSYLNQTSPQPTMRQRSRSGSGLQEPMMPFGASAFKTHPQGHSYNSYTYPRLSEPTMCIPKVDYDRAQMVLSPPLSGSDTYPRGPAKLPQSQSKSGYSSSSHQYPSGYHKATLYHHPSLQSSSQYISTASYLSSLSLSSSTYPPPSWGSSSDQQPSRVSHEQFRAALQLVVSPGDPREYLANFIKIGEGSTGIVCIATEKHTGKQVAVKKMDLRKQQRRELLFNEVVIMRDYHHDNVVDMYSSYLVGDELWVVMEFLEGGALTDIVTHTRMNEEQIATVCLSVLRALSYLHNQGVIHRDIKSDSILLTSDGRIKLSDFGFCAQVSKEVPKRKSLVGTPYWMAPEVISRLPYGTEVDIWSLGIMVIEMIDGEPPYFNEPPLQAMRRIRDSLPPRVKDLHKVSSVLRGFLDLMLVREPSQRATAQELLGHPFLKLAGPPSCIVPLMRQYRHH
Excerpt: as §1

[13] = molecular target: 363 human kinases (including Aurora A/B/C) (Homo sapiens, UniProt Q15349); details: RSK3, read-out: % Enzyme Activity (relative to DMSO controls)
Excerpt: as §1

[14] = molecular target: T3, 363 human kinases (including Aurora A/B/C) (Homo sapiens, UniProt Q96PN8); details: TSSK3/STK22C, read-out: % Enzyme Activity (relative to DMSO controls)
T3 sequence (Q96PN8 1-268): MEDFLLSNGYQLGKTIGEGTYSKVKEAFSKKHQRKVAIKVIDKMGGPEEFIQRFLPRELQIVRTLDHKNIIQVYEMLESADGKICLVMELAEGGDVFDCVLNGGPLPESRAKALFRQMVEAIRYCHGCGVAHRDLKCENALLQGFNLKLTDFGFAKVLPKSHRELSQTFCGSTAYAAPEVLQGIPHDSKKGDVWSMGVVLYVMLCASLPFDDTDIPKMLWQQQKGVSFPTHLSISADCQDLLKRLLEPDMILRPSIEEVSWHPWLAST
Excerpt: as §1

O=C(O)[C@]1(Cc2cccc(Nc3nccs3)n2)CC[C@@H](Oc2cccc(Cl)c2F)CC1 [MK-5108]
remaining activity at 0.1 µM ([1]; 100 nM): 95.4% | remaining activity at 0.5 µM ([1]; 500 nM): 101% | remaining activity at 0.1 µM ([2]; 100 nM): 101% | remaining activity at 0.5 µM ([2]; 500 nM): 46.2% | remaining activity at 0.1 µM ([3]; 100 nM): 87.6% | remaining activity at 0.5 µM ([3]; 500 nM): 64.2% | remaining activity at 0.1 µM ([4]; 100 nM): 89.9% | remaining activity at 0.5 µM ([4]; 500 nM): 103% | remaining activity at 0.1 µM ([5]; 100 nM): 86.7% | remaining activity at 0.5 µM ([5]; 500 nM): 67.2% | remaining activity at 0.1 µM ([6]; 100 nM): 24.4% | remaining activity at 0.5 µM ([6]; 500 nM): 5.4% | remaining activity at 0.1 µM ([7]; 100 nM): 92.8% | remaining activity at 0.5 µM ([7]; 500 nM): 89.8% | remaining activity at 0.1 µM ([8]; CDK4/cyclin D1, [ATP] 30 µM): 96.4% | remaining activity at 0.5 µM ([8]; CDK4/cyclin D1, [ATP] 30 µM): 96.1% | remaining activity at 0.1 µM ([8]; CDK4/cyclin D3, [ATP] 15 µM): 99% | remaining activity at 0.5 µM ([8]; CDK4/cyclin D3, [ATP] 15 µM): 98.8% | remaining activity at 0.1 µM ([9]; 100 nM): 95.3% | remaining activity at 0.5 µM ([9]; 500 nM): 95.4% | remaining activity at 0.1 µM ([10]; 100 nM): 36.8% | remaining activity at 0.5 µM ([10]; 500 nM): 13.1% | remaining activity at 0.1 µM ([11]; 100 nM): 97.3% | remaining activity at 0.5 µM ([11]; 500 nM): 99.7% | remaining activity at 0.1 µM ([12]; 100 nM): 107% | remaining activity at 0.5 µM ([12]; 500 nM): 78.1% | remaining activity at 0.1 µM ([13]; 100 nM): 101% | remaining activity at 0.5 µM ([13]; 500 nM): 89.7% | remaining activity at 0.1 µM ([14]; 100 nM): 101% | remaining activity at 0.5 µM ([14]; 500 nM): 91.3%
